Measurements: PubChem BioAssay (NCI)
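96-well plates; 48 h exposure; 5 concentrations. Endpoints by linear interpolation between flanking doses. Not reached: highest tested concentration assigned. TGI denotes the concentration required for complete inhibition of growth.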

Key:
Experiment in all cases: growth of human tumour cells (NCI), 48 h
EKVX NSCLC = system: EKVX NSCLC
SF-539 CNS = system: SF-539 CNS
NCI-H522 lung = system: NCI-H522 lung
UACC-62 melanoma = system: UACC-62 melanoma
LXFL 529 NSCLC = system: LXFL 529 NSCLC
CCRF-CEM leukemia = system: CCRF-CEM leukemia
DMS 273 small cell lung = system: DMS 273 small cell lung
A498 renal = system: A498 renal
DLD-1 colon = system: DLD-1 colon
SK-MEL-5 melanoma = system: SK-MEL-5 melanoma
SF-295 CNS = system: SF-295 CNS
SK-OV-3 ovarian = system: SK-OV-3 ovarian
SW-620 colon = system: SW-620 colon
TK-10 renal = system: TK-10 renal
OVCAR-4 ovarian = system: OVCAR-4 ovarian
NCI-H23 lung = system: NCI-H23 lung
CAKI-1 renal = system: CAKI-1 renal
ACHN renal = system: ACHN renal
UACC-257 melanoma = system: UACC-257 melanoma
SN12C renal = system: SN12C renal
COLO 205 colon = system: COLO 205 colon
HT29 colon = system: HT29 colon
A549 NSCLC = system: A549 NSCLC
SNB-78 CNS = system: SNB-78 CNS
SF-268 CNS = system: SF-268 CNS
HCT-15 colon = system: HCT-15 colon
KM20L2 colon = system: KM20L2 colon
RPMI-8226 leukemia = system: RPMI-8226 leukemia
MALME-3M melanoma = system: MALME-3M melanoma
SK-MEL-2 melanoma = system: SK-MEL-2 melanoma
HCC-2998 colon = system: HCC-2998 colon
RXF-631 renal = system: RXF-631 renal
LOX IMVI melanoma = system: LOX IMVI melanoma
DMS 114 small cell lung = system: DMS 114 small cell lung
MOLT-4 leukemia = system: MOLT-4 leukemia
SK-MEL-28 melanoma = system: SK-MEL-28 melanoma
SNB-19 CNS = system: SNB-19 CNS
IGROV1 ovarian = system: IGROV1 ovarian
786-0 renal = system: 786-0 renal
HCT-116 colon = system: HCT-116 colon
UO-31 renal = system: UO-31 renal
OVCAR-5 ovarian = system: OVCAR-5 ovarian
OVCAR-3 ovarian = system: OVCAR-3 ovarian
XF 498 CNS = system: XF 498 CNS
SNB-75 CNS = system: SNB-75 CNS
HOP-18 NSCLC = system: HOP-18 NSCLC
OVCAR-8 ovarian = system: OVCAR-8 ovarian
M19-MEL melanoma = system: M19-MEL melanoma
M14 melanoma = system: M14 melanoma
U251 CNS = system: U251 CNS
SR leukemia = system: SR leukemia
HOP-62 NSCLC = system: HOP-62 NSCLC
KM12 colon = system: KM12 colon
RXF 393 renal = system: RXF 393 renal
NCI-H460 lung = system: NCI-H460 lung
HOP-92 NSCLC = system: HOP-92 NSCLC
K-562 leukemia = system: K-562 leukemia
NCI-H226 lung = system: NCI-H226 lung

O=C1C2C3C=CC(C2C(=O)N1CO)C1C2C(=O)N(CO)C(=O)C2C31 (stereo not drawn)
TGI (EKVX NSCLC): > 100 µM
TGI (SF-539 CNS): > 100 µM
TGI (NCI-H522 lung): > 100 µM
TGI (UACC-62 melanoma): > 100 µM
TGI (LXFL 529 NSCLC): > 100 µM
TGI (CCRF-CEM leukemia): > 59.3 µM
TGI (DMS 273 small cell lung): > 59.1 µM
TGI (A498 renal): > 100 µM
TGI (DLD-1 colon): > 73.7 µM
TGI (SK-MEL-5 melanoma): > 100 µM
TGI (SF-295 CNS): > 100 µM
TGI (SK-OV-3 ovarian): > 100 µM
TGI (SW-620 colon): > 66.7 µM
TGI (TK-10 renal): > 100 µM
TGI (OVCAR-4 ovarian): > 64.7 µM
TGI (NCI-H23 lung): > 100 µM
TGI (CAKI-1 renal): > 100 µM
TGI (ACHN renal): > 66.6 µM
TGI (UACC-257 melanoma): > 100 µM
TGI (SN12C renal): > 100 µM
TGI (COLO 205 colon): > 66.9 µM
TGI (HT29 colon): > 100 µM
TGI (A549 NSCLC): > 88.4 µM
TGI (SNB-78 CNS): > 100 µM
TGI (SF-268 CNS): > 79 µM
TGI (HCT-15 colon): > 62.9 µM
TGI (KM20L2 colon): > 31.6 µM
TGI (RPMI-8226 leukemia): 46.5 µM
TGI (MALME-3M melanoma): > 100 µM
TGI (SK-MEL-2 melanoma): > 100 µM
TGI (HCC-2998 colon): > 100 µM
TGI (RXF-631 renal): > 100 µM
TGI (LOX IMVI melanoma): > 61.9 µM
TGI (DMS 114 small cell lung): > 58.6 µM
TGI (MOLT-4 leukemia): > 100 µM
TGI (SK-MEL-28 melanoma): > 100 µM
TGI (SNB-19 CNS): > 100 µM
TGI (IGROV1 ovarian): > 100 µM
TGI (786-0 renal): > 58.6 µM
TGI (HCT-116 colon): > 59.8 µM
TGI (UO-31 renal): > 100 µM
TGI (OVCAR-5 ovarian): > 100 µM
TGI (OVCAR-3 ovarian): > 100 µM
TGI (XF 498 CNS): > 100 µM
TGI (SNB-75 CNS): > 100 µM
TGI (HOP-18 NSCLC): 76.7 µM
TGI (OVCAR-8 ovarian): > 75.8 µM
TGI (M19-MEL melanoma): > 100 µM
TGI (M14 melanoma): > 100 µM
TGI (U251 CNS): > 100 µM
TGI (SR leukemia): 45 µM
TGI (HOP-62 NSCLC): > 100 µM
TGI (KM12 colon): > 100 µM
TGI (RXF 393 renal): > 100 µM
TGI (NCI-H460 lung): > 54.5 µM
TGI (HOP-92 NSCLC): > 100 µM
TGI (K-562 leukemia): > 82.5 µM
TGI (NCI-H226 lung): > 100 µM
